Test results: article PMC13206458, “A Synergistic Inhibitor Development Strategy Against Human UDP‐Galactose‐4‐Epimerase” (Angewandte Chemie (International Ed. in English), 2026)

Key:
GalE [1] = biological target: T1, GalE (Homo sapiens, UniProt Q14376); assay: Intact-protein LCMS covalent modification; format: binding; parameters: His tag (3C-cleavable; concluded from HisTrap purification and 3C cleavage) (cleaved yes); made in house; host or cells: Sf21 insect cells (baculovirus, described before) or E. coli BL21 (DE3); details: 0.5 µM GalE, 100 µM compound, 24 h incubation, one experiment
T1 sequence (Q14376 1-348): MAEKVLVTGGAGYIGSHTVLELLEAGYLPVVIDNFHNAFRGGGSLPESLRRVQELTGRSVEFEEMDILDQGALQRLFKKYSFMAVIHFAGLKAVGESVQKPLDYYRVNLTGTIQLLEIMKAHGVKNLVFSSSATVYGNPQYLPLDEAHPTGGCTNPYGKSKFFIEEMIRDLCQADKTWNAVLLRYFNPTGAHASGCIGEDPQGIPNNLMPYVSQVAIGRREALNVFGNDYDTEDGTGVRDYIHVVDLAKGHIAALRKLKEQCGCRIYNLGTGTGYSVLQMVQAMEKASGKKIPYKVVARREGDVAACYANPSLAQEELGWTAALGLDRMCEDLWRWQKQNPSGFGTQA
Source text: To advance GalE inhibitors towards a suitable probe, we next evaluated available crystal structures to identify nearby nucleophilic residues for developing covalent inhibitors (Figure 3A). Three residues close to the ligand binding pocket were identified as potential modification points for commonly employed covalent warheads, Tyr211, Tyr230 and Lys295 (Figure 3B). We screened a library of 347 sulfonyl fluoride‐containing fragments, reported to target Tyr/Lys residues (Figure 3C). Screening was performed by incubating fragments at 100 µM with 0.5 µM purified GalE for 24 h. Protein modification was then determined by intact‐protein LCMS. In this experiment, we deliberately omitted the addition of the NAD cofactor to keep the experimental conditions simple and potentially allow for the sampling of a larger conformational ensemble in GalE. […]
Buffer AGX1_B over 17 min.
A 5 µL sample was injected […]
The flow rate and temperature were set to 0.5 mL/min and 70 °C, respectively. […] The obtained spectra were analysed and deconvoluted with the MassHunter BioConfirm software (Agilent Technologies, Cheshire, UK). […] The spectra were then exported and analysed using software developed internally at GSK to determine relative % labelling. […]
controls were included. Samples were analysed by intact-LCMS as described above and the relative % protein modification determined. […]

GalE [2] = biological target: T1, GalE; assay: Covalent fragment kinetics assay by intact-protein LCMS; format: binding; parameters: His tag (3C-cleavable; concluded from HisTrap purification and 3C cleavage) (cleaved yes); made in house; host or cells: Sf21 insect cells (baculovirus, described before) or E. coli BL21 (DE3)
GalE [3] = biological target: T1, GalE; assay: Covalent fragment site identification by tryptic digest LCMS/MS; parameters: His tag (3C-cleavable; concluded from HisTrap purification and 3C cleavage) (cleaved yes); made in house; host or cells: Sf21 insect cells (baculovirus, described before) or E. coli BL21 (DE3)
Source text: • Options: Optimisation of hydrogens, keep tight waters (those that make 3 or more H-bonds), optimise His, Pro, Asn, Gln, and Cys side chains.
• Options: Optimisation of formal and partial charges, protonation states (at pH 7.5) and hydrogen placement.
• Identification of the binding pocket and building of receptor maps around X0213 using the ICM virtual screening function.
• Docking of libraries from SDFiles using the ICM virtual ligand screening function, selecting a thoroughness score of 3.
• All other docking parameters kept as default, and no additional triaging was […]
WBC01 and WBC02 Covalent Fragment Site Identification Mass Spectrometry Recombinant human GalE (10 µM GalE, 25 mM HEPES, 50 mM NaCl) was first incubated with either WBC01 or WBC02 (25, 50, or 100 µM) or matched 1% (V/V) DMSO control for 24 hours at room temperature. Samples were separated by SDS-PAGE gel, stained with colloidal Coomassie InstantBlue (Abcam, Cambridge, UK), bands corresponding to GalE were excised, reduced in 10 mM DTT (in water) for 20 minutes at 55 °C, alkylated with 55 mM iodoacetamide (IAA) in the same buffer at room temperature for 20 minutes, and digested overnight using 100 ng trypsin in 10 mM ammonium bicarbonate at 37 °C (Promega, Wisconsin, USA) before being acidified with to 0.1% Trifluoracetic acid (TFA).
On an Ultimate 3000 nanoRSLC HPLC (Thermo Scientific, Massachusetts, USA), 1-10 µL of protein sample was loaded on a 20 mm x 75 µm Pepmap C18 trap column (Thermo Scientific) prior to elution via a 50 cm x 75 µm EasySpray C18 column into a Lumos Tribrid Orbitrap mass spectrometer (Thermo Scientific). A 45 minute gradient of 6% - 40% B was used followed by washing and re-equilibration (A= 2% ACN, 5% DMSO, 0.1% formic acid; B= 80% ACN, 5% DMSO, 0.1% formic acid). […]
bottom plate from a 10 mM source in DMSO. […] The plate was sealed, centrifuged (1 min, 1000 rpm), incubated at 20 °C for 6 h, and 15 µL aliquots were subsequently removed and analyzed by intact protein LC-MS to confirm modification. […]

GalE [4] = biological target: T1, GalE; assay: Isothermal titration calorimetry (ITC); format: binding; parameters: His tag (3C-cleavable; concluded from HisTrap purification and 3C cleavage) (cleaved yes); made in house; host or cells: Sf21 insect cells (baculovirus, described before) or E. coli BL21 (DE3); details: 25 °C, one experiment, approximate/estimated
[5] = Hepatocyte stability assay; format: in vitro ADME; details: hepatocytes, preliminary DMPK
AGX1 [6] = biological target: T2, AGX1 (Homo sapiens, UniProt Q16222); assay: AGX1 inhibition assay; details: 400 µM WBX09, multiple enzyme concentrations
T2 sequence (Q16222 1-505 isoform Q16222-2, species assumed): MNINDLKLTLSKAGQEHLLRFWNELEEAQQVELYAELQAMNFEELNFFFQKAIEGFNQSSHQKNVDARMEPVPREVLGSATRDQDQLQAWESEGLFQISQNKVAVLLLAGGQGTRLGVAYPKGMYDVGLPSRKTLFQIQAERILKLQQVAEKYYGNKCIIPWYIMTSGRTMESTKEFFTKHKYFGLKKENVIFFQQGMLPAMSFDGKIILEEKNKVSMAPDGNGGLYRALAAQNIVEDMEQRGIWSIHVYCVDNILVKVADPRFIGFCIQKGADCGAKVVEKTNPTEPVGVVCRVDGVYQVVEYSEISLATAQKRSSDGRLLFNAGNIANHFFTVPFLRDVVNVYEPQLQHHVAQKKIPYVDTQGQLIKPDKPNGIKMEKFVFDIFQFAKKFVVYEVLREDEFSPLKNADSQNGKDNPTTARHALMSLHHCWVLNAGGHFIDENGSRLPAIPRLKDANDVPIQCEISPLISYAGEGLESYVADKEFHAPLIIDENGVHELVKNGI
Method: Recombinant AGX1 was expressed before.[14] Commercial N-Acetyl-D-glucosamine 1-
phosphate disodium salt (GlcNAc-1-P, Sigma Aldrich) was used as a substrate to
absorbance-based assay. Reactions were carried out using 0.5 mM GlcNAc-1-P, 1
either 5 nM, 10 nM or 20 nM AGX1 in a total volume of 20 µL reaction buffer (5 mM
Reactions were stopped by the addit ion of an equal volume of ice-cold acetonitrile,
followed by centrifugation at 16200 g, 4 °C for 30 min. The supernatant of each
reaction was analysed by injecting 9 µL into Acquity H -Class PLUS QDa UPLC -MS
(Waters, Milford, USA) equipped with an ACQUITY UPLC® Glycan BEH Amide
column (130 Å, 1.7 μ m, 2.1 x 100 mm, Waters). Samples were run a t a flow rate of
0.35 mL/min, column temperature at 50 °C and sample manager (sample tray) at 10
°C using Buffer AGX1_ A (10 mM ammonium formate at pH 4.5); Buffer AGX1_ B (10
Product formation was monitored by absorption at 260
nm and further confirmed by mass detection in negative mode. Turnover (%) was
determined by integration of the product’s UV peaks and plotting it against a standard
curve of 0-2.5 mM UDP-GlcNAc (Sigma- Aldrich) produced by serial dilution in final

MGAT2 = biological target: T3, MGAT2 (Homo sapiens, UniProt Q10469); assay: MGAT2 inhibition assay; details: 400 µM WBX09, multiple enzyme concentrations
T3 sequence (Q10469 1-447): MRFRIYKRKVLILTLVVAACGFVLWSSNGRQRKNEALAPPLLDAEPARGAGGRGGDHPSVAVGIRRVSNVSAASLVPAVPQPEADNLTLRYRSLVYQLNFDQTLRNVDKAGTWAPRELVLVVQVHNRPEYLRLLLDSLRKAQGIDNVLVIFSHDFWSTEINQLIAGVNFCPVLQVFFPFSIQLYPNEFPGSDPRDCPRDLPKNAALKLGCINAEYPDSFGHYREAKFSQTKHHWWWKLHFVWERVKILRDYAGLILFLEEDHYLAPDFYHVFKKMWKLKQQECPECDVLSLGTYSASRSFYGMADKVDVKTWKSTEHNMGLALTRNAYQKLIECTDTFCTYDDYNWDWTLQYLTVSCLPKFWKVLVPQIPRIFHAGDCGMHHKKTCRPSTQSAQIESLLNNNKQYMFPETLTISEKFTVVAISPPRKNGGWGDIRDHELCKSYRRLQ
Method: MGAT2 was recombinantly expressed before.[13] Reaction mixtures were prepared by
an equivalent volume of DMSO, in a total of 10 μL reaction buffer (50 mM Tris pH 6.8,
with 5 mM MnCl2, 0.1% BSA and 0.1% Triton-X100). Reactions were carried out at
centrifuged at for 30 min at 14,000 g at 4°C to precipitate proteins. Of each sample, 9
µL of the supernatant was injected onto an Acquity H-Class PLUS QDa UPLC-MS
(Waters) equipped with an ACQUITY UPLC® Glycan BEH Amide column (130 Å, 1.7
μm, 2.1 x 100 mm, Waters). Samples were run at flow rate of 0.35 mL/min using Buffer
MGAT2_A (10 mM Ammonium formate at pH 4.5); Buffer MGAT2_B (10 mM
The turnover of the procainamide acceptor glycan into the
of the acceptor substrate and the product glycan.

AGX1 [7] = biological target: T2, AGX1; assay: WBC11 alkyne protein labelling assay (CuAAC, streptavidin blot), AGX1 control; format: binding; parameters: made in house; details: 10 µM WBC11
Method: dependent analysis (DDA).
methionine were allowed. […] (293.30
WBC11 Alkyne protein labelling assay
minutes at room temperature.
Membrane was blocked for 1 hour with
Each total protein signal value was
normalisation factor for each band.
normalised densitometry score.

GalE [8] = biological target: T1, GalE; assay: WBC11 alkyne protein labelling assay (CuAAC, streptavidin blot), GalE; details: 95°C for 5 min in sodium dodecyl sulphate loading buffer
Method: We then used WBC11 to trace covalent GalE modification (Figure 5D). […] The traceable nature of WBC11 allowed us to assess the stability of the sulfonyl ester bond to Tyr211.
Recombinant samples of either GalE or AGX1 (0.5 µg enzyme in 25 mM HEPES pH
7.5, 50 mM NaCl, 200 µM NAD) were incubated with either 10 µM WBC11 alkyne, 100
final conditions) for 1 hour at room temperature in 27 µL volume. Samples then
underwent copper-catalyzed azide-alkyne cycloaddition (CuAAC) with 100 µM biotin
picolyl azide (Sigma-Aldrich), 600 µM copper(II) sulfate, 1.2 mM 2-(4-((Bis((1-(tert-
butyl)-1H-1,2,3-triazol-4-yl)methyl)amino)methyl)-1H-1,2,3-triazol-1-yl)acetic acid
(BTTAA), 5 mM sodium ascorbate, and 5 mM amminoguanidine hydrochloride for 30
concentration. Stability of the covalent bond was assessed by incubating the GalE-
WBC11 conjugate for 5 minutes at 95 °C. Samples were run on an 4%-20% SDS
PAGE gel (CriterionTM TGXTM Precast Midi Protein Gel, Bio-Rad) for 70 mins at 160V.
Western blot transfer to 0.2 µm nitrocellulose membrane (Bio-Rad) was done with the
Transblot-Blot Turbo Transfer System (Bio-Rad) at the HIGH MW protocol (10 mins,
2.5 A, up to 25 V). For total protein staining, membrane was incubated with Revert 700
Total Protein stain (LI-COR) for 5 mins. Membrane was blocked for 1 hour with […]
analysed on Image Studio (version 6.0, LI-COR). […]

GalE [9] = biological target: T1, GalE; assay: GalE epimerisation assay (HPAEC, UDP-Gal to UDP-Glc), non-covalent concentration-response
Method: The GalE enzyme assay uses high‐performance anion exchange chromatography (HPAEC) to determine the conversion of UDP‐Gal to UDP‐Glc (Figure S3A) [28].
For in vitro epimerisation, 20 µL reactions were performed in 25 mM HEPES, pH 7.5,
50 mM NaCl, 200 µM NAD with 100 µM UDP-Gal and 5 nM GalE. Reactions were run
minute. Samples were cooled to 4 °C and analysed by high performance liquid
chromatography (HPLC) using an ArcPremier Waters instrument with a Dionex
CarboPac PA1 IC (2mm x 150 mM) column (Waters, Wilmslow, UK). Injection volume
was 5 µL. Eluent A was 1 M NaOAc/1 mM NaOH (Sigma-Aldrich, St. Louis, USA).
The % conversion for each assay was determined by
the relative difference in peak area between UDP-Gal and UDP-Glc peaks. Kinetics
factors (KM and kcat) were determined by non-linear curve fitting using Graphpad Prism
9.0 GraphPad Software. Calculations used a modified version of the Michaelis-Menten
𝜈(𝐺𝐴𝐿𝐸) = [𝐺𝐴𝐿𝐸]! ∙ 𝑘#$! ∙[𝑈𝐷𝑃 − 𝐺𝑎𝑙]
Equation 1: Michaelis-Menten Equation as used in GraphPad.
Where 𝜈 is the initial rate in µM/s.
𝐾%is the Michaelis-Menten constant in µM.
[𝐺𝐴𝐿𝐸]! is the concentration of GalE in µM in the assay.
𝑘#$!is the turnover number in s-1.
[𝑈𝐷𝑃 − 𝐺𝑎𝑙] is the concentration of UDP-Gal at the start of the reaction in µM.
Non-Covalent Compound Concentration-Response Assay […]
only-controls and activity assessed by epimerisation assay.

GalE [10] = biological target: T1, GalE; assay: Differential scanning fluorimetry (DSF) thermal shift assay; format: binding; parameters: His tag (3C-cleavable; concluded from HisTrap purification and 3C cleavage) (cleaved yes); made in house; host or cells: Sf21 insect cells (baculovirus, described before) or E. coli BL21 (DE3); details: relative to DMSO controls, three technical replicates
[11] = GalE incubated with 100, 50 or 25 µM compound, tryptic digest MS

In the case of `Cc1cc(NC(=O)NCc2cccc(S(=O)(=O)F)c2)no1` [WBC03], the protein modification % (GalE [1]) is reported as over 95%, the kinact/KI (GalE [2]) is reported as 11.7 M⁻¹ s⁻¹ and the residue modified (GalE [3]; 200-fold excess of compound, tryptic digest LCMS/MS) is reported as “only Tyr211”.

Compound `CCNC(=O)Nc1cc(C)on1` [X0213] has a Kd (GalE [4]) of about 468 µM.

With `O=C(CCNC(=O)Nc1cc(C2CCC2)on1)Nc1ccncc1` [WBX09] the half-life [5] was 16.4 min, the hepatocyte CLint ([5]; read-out: intrinsic clearance) was 42.4 µL/min/1e6 cells and the “effect on AGX1 activity” value (AGX1 [6]) was “No inhibition”. The “effect on MGAT2 activity” value (MGAT2) was “No inhibition”.

With `O=C(NCc1ccc(Cl)c(Cl)c1)c1cccc(S(=O)(=O)F)c1` [WBC02] the residue modified (GalE [3]; [11]) was “Tyr211”.

In the case of `C#Cc1cc(CNC(=O)Nc2cc(C3CCC3)on2)cc(S(=O)(=O)F)c1` [WBC11], the “biotin tagging of AGX1 control protein” value (AGX1 [7]) is reported as “band of lower intensity” and the “intensity of GalE-WBC11 adduct after heating (stability of covalent bond)” value (GalE [8]) is reported as “did not change”.

In the case of `O=S(=O)(F)c1cccc(-c2cc(O)c3ccccc3n2)c1` [WBC01], the residue modified (GalE [3]; [11]) is reported as “Tyr211”.

For `Cc1cc(NC(=O)NCCC(=O)Nc2ccncc2)no1` [WBX04], the IC50 (GalE [9]) was 115 µM, the Kd (GalE [4]) was 9 ± 6 µM and the ΔTm (GalE [10]) was 3.1 °C.
